# Experimental data reported in US8545872B2, “Device for the transdermal administration of a rotigotine base” (UCB Pharma GmbH, priority 2002, dated 2013).
# What was measured:
# [1] = cited from earlier work
# [2] = Solubility of rotigotine in polymers and solvents; assay type: physicochemical; conditions: e.g. hexane, ethyl acetate and toluol
compound,measurement,setting,value
"CCCN(CCc1cccs1)[C@H]1CCc2c(O)cccc2C1 [Rotigotine, (−)-5,6,7,8-tetrahydro-6-[propyl[2-(2-thienyl)ethyl]amino]-1-naphtol]",Solubility in hydrophobic polymers such as silicon,[1],only feebly soluble
same,Solubility of the crystals in solvents suitable for dissolving matrix polymers,[2],nearly insoluble
